“Also recorded” adds a separate entry of the source. Read-outs that look alike come from different tables or passages of the source.
Legend:
[1] = system: P(40) particulate fraction of Methylosinus sp. (CRL-15, NRRL B-11,202); experiment: Effect of inhibitors on propylene epoxidation and methane hydroxylation by P(40) fraction; assay type: biochemical; details: inhibitor 10^-3 M
Method: (§1) The oxidation of methane and propylene by particulate [(P)40 and(P)80] fractions and soluble [S(80)] fraction was measured at 30° C. by estimating the production of methanol and propylene oxide, respectively. The reaction mixtures contained in 1.0 ml: 150 mM potassium phosphate buffer, pH 7.0 containing 5 mM MgCl2, 0.6 ml; 10 μmoles NADH, and cellular fraction.
Reaction mixtures were contained in 10 ml vials at 4° C. Vials were sealed with rubber caps. The gaseous phase in the vials was removed using vacuum and then was replaced with a gas mixture of methane or propylene and oxygen at a 1:1, v/v ratio. Oxidation of other gaseous n-alkanes and n-alkenes was examined as described above. For liquid substrates, 10 μl of substrate was used directly. Vials were then incubated at 30° C. on a rotary shaker at 200 RPM.
It has been reported that the oxidation of methane by cell suspensions of methane-utilizing bacteria was inhibited by various metal-binding or metal-chelating agents (Patel et al., J. Bacteriol. 126: 1017-1019 (1976)). […] (CRL-15, NRRL B-11,202) was examined.

[2] = system: cell-free particulate fractions derived from the methylotrophic microorganisms; experiment: Conversion of C3-C6 n-alkanes to sec. alcohols by cell-free particulate fractions: inhibitors and electron donors; assay type: biochemical
Text: The conditions for preparing the cell suspensions or the cell-free particulate fractions from methane-grown methylotroph microorganisms is the same as described above. […] Tables XXV and XXVI show the conversion of C3 -C6 n-alkanes to the corresponding secondary alcohols using cell suspensions and cell-free particulate fractions, respectively, of methane-grown methylotroph microorganisms.

[3] = system: methanol-grown Methylococcus capsulatus CRL M1 (NRRL B-11,219); experiment: Effect of metal-chelating agents and other inhibitors on production of 2-butanone by cell suspensions; assay type: cell-based; details: NRRLB11, read-out: Inhibition (%) of production of 2-butanone
[4] = system: secondary alcohol dehydrogenase (SADH); experiment: Purified secondary alcohol dehydrogenase activity (formation of reduced NAD); assay type: biochemical, Pseudomonas sp. ATCC 21439
Method: Secondary alcohol dehydrogenase (SADH) from an obligate methanol utilizer, Pseudomonas sp. ATCC 21439 was purified as follows. […] 0.05 M sodium phosphate buffer, pH 7.0 with 0.5 mM dithiothretol (buffer A) and were disrupted sonically (5×1 min.). The crude extract was separated by centrifugation. The crude extract was heat-treated at 50° C. in a water bath for 10 minutes. The resulting precipitate was removed by centrifugation. To the supernatant solution, 25 ml of protamine sulfate solution (2% solution in 0.1 M Tris base) was added dropwise with continuous stirring. After standing for 30 minutes, the extract was centrifuged. The supernatant solution was fractionated with solid ammonium sulfate. The material precipitating between 30 and 60% saturation was collected and was dialized overnight against buffer A. The The dialized material was applied to a DEAE-cellulose column (3 cm by 35 cm) that had been equilibrated with buffer A. The secondary alcohol dehydrogenase activity was eluted in the void volume. This DEAE-cellulose eluate was concentrated by ammonium sulfate fractionation. Material precipitating between 30 and 50% ammonium sulfate saturation was collected by centrifugation and dialyzed overnight against A. This fraction was further washed and filtered through an Amicon unit with XM 50 membrane. The concentrated fraction (6 ml) inside the Amicon unit was applied to an Affi-Gel Blue column (0.8 cm×18 cm) which had been equilibrated with buffer A for affinity chromatography. The column was washed overnight with buffer A (0.18 ml./min.) and then was eluted with buffer A containing 5 mM NAD. Each 1 ml. fraction was collected.
The purified secondary alcohol dehydrogenase enzyme (SADH) may be used directly for converting C3 -C6 secondary alcohols to the corresponding methyl ketones by the procedures described above; however, a source of NAD^+ must be added to the reaction medium. One can determine the NAD-linked secondary alcohol dehydrogenase activity with a fluorescence spectrophotometer (Perkin Elmer, Model MPF 44A) by following the formation of reduced NAD (Ex 340 nm, Em 460 nm). The assay system (3 ml.) will typically contain: sodium phosphate buffer pH 7.0, 150 μmol; NAD 1.0 μmol; a given amount of enzyme preparation; and 20 μmol secondary alcohol. The reaction is started by the addition of secondary alcohol. One unit of SADH enzyme activity represents the reduction of one nmole NAD per minute.
The effect of metal-chelating agents and thioreagents on the activity of the purified SADH enzyme were studied. […] The possibility of ethanol or n-propanol as an inhibitor was studied.

[5] = Oxidation of 2-butanol to 2-butanone by cell-free soluble extracts of C1-utilizing microbes; assay type: biochemical
Method: The clear supernatant contained the SADH activity. […] The reaction was started by the addition of substrate.
Catalytic activity was also assayed by fluorescence spectrophotometry.

[6] = system: secondary alcohol dehydrogenase; experiment: Purified yeast secondary alcohol dehydrogenase: substrates, electron acceptors, inhibitors, stoichiometry; assay type: biochemical, Pichia sp. NRRL Y-11,328
Method: Large scale cultures of Pichia sp. NRRL Y-11,328 were grown with aeration at 30° C. in a 14-liter New Brunswick f fermentor in a mineral salt medium containing methanol (0.4%, v/v) as the sole carbon source. The cells (200 g., wet weight) were suspended in […] sodium phosphate buffer, pH 7.0, containing 1 mM dithiothreitol (buffer A), and crude extracts were prepared as described previously. To the crude extracts, 18 ml. of protamine sulfate solution [2% solution in 0.1 M tris (hydroxymethyl) aminomethane (tris) base] was added dropwise with continuous stirring. After standing for 30 min., the extracts were centrifuged at 20,000×g. for 60 min. The supernatant solution was fractionated with solid ammonium sulfate. Extracts were brought to 50% of saturation with respect to ammonium sulfate by addition of 313 g. of the salt per liter of extract. Precipitated proteins was removed by centrifugation, and 137 g. of ammonium sulfate was added per liter of the supernatant liquid to bring it to 70% of saturation. Material precipitating between 50 and 70% of saturation was collected by centrifugation and dissolved in buffer A. This preparation was dialyzed overnight against buffer A, and the dialyzed material was applied to a DEAE-cellulose column (5×40 cm) that had been equilibrated with buffer A. The sample was washed with 200 ml. of buffer A and eluted with 2 liters of buffer A that contained NaCl in a linear gradient running from a concentration of 0 to 0.5 M. Fractions of 15 ml. were collected. Fractions containing secondary alcohol dehydrogenase activity were pooled and were termed DEAE-cellulose eluate. The DEAE-cellulose eluate was concentrated by ammonium sulfate fractionation.
Secondary alcohol dehydrogenase activity was measured spectrophotometrically at 340 nm with a NAD^+ as an electron acceptor. The reaction mixture, in a total 3.0 ml., contained 50 mM phosphate buffer, pH 8.0, 5μ moles NAD^+, crude extracts, and subtrate. The reactions were started by addition of 100 μl of 0.1 M substrate and the rate of NAD^+ reduction was measured. Protein concentration was determined by the method of Lowry et al.
The substrate specificity of the purified secondary alcohol dehydrogenase was examined spectrophotometrically.

[7] = system: P(40) particulate fraction of Methylosinus sp. (CRL-15, NRRL B-11,202); experiment: Effect of metals on propylene epoxidation and methane hydroxylation by P(40) fraction; assay type: biochemical; details: metal 10^-3 M; for Methane-Oxidizing Activity in presence of metal: control 4.0; for Propylene-Oxidizing Activity in presence of metal: control […]
Method: as §1
Reaction mixtures were contained in 10 ml vials at 4° C. Vials were sealed with rubber caps. The gaseous phase in the vials was removed using vacuum and then was replaced with a gas mixture of methane or propylene and oxygen at a 1:1, v/v ratio. Oxidation of other gaseous n-alkanes and n-alkenes was examined as described above. For liquid substrates, 10 μl of substrate was used directly.
Since the methane mono-oxygenase from methane-utilizing bacteria is a copper or iron-containing protein (Tonge et al., J. Biochem., 161: 333-344 (1977)), we have examined the effect of copper and iron salts on the oxidation of methane and propylene by the P(40) particulate fraction of Methylosinus sp. (CRL-15, NRRL B-11,202). The rate of hydroxylation of methane to methanol and epoxidation of propylene to propylene oxide was increased twofold in the presence of added copper salts (Table XII).

[8] = system: P(40) particulate fraction of Methylosinus sp. (CRL-15, NRRL B-11,202); experiment: Oxidation of n-alkenes and n-alkanes by P(40) particulate fraction; assay type: biochemical
[9] = system: P(40) particulate fraction of Methylosinus sp. (CRL-15, NRRL B-11,202); experiment: Stoichiometry of propylene epoxidation and methane hydroxylation by P(40) fraction; assay type: biochemical; details: 5.0 μmoles substrate
Method: The particulate P(40) fraction of Methylosinus sp. (CRL-15, NRRL B-11,202) was used to determine the stoichiometry of hydroxylation and epoxidation reactions. The stoichiometry of methane or propylene-dependant NADH oxidation, oxygen consumption and product formation was approximately 1:1:1 Table XIV. This is consistent with methane or propylene oxygenation being catalyzed by a mono-oxygenase.
^a Under identical condition of reaction, the estimation of NADH
oxidized was carried out spectrophotometrically, the estimation of oxygen
consumed was measured polarographically, and estimation of product formed
was carried out by gas chromatography.

[10] = system: Methylococcus capsulatus (CRL Ml, NRRL B-11,219); experiment: Effect of inhibitors on epoxidation of propylene and hydroxylation of methane, cell-containing enzyme preparation; assay type: cell-based; details: cell suspension of methane-grown strain

Oc1cccc2cccnc12 [8-Hydroxyquinoline]
% Inhibition, Methane-Hydroxylating Activity [1]: 80% | % Inhibition, Propylene-Epoxidizing Activity [1]: 75% | inhibition of the conversion of the n-alkanes to the sec. alcohols [2]: inhibited

[N-]=[N+]=[N-] [Sodium azide]
inhibition at 1000 µM [3]: 10% | % inhibition of SADH activity ([4]; purified SADH, each inhibitor 1 mM, measured spectrofluorometrically): 10%

NNC(N)=S [Thiosemicarbazide]
% Inhibition, Methane-Hydroxylating Activity [1]: 100% | % Inhibition, Propylene-Epoxidizing Activity [1]: 97% | inhibition of the conversion of the n-alkanes to the sec. alcohols [2]: inhibited

C[n+]1c2ccccc2nc2ccccc21 [phenazine methosulfate]
cofactor for oxidation of secondary alcohols in the cell-free system [5]: not effective | electron acceptor for the purified enzyme [6]: could not act as electron carrier

[Cl][Cu] [Cuprous Chloride]
Methane-Oxidizing Activity in presence of metal [7]: 7.2 μmoles/hr/mg protein | Propylene-Oxidizing Activity in presence of metal [7]: 9.2 μmoles/hr/mg protein

C [Methane]
Propylene Oxide Produced ([8]; substrate competition, gas phase as labelled): 0 μmoles/hr/mg. protein | Rate of Product Formation ([8]; substrate oxidized to its epoxide or alcohol, 30° C.): 4.8 μ moles/hr/mg of protein | NADH Oxidized [9]: 4.8 µmol | O2 Consumed [9]: 4.6 µmol | Product formed [9]: 4.2 µmol | inhibition of epoxidation of propylene to propylene oxide in the presence of methane [10]: 50%

O=S(=O)([O-])[O-].[Cu+2] [Cupric Sulfate]
Methane-Oxidizing Activity in presence of metal [7]: 7.1 μmoles/hr/mg protein | Propylene-Oxidizing Activity in presence of metal [7]: 9.0 μmoles/hr/mg protein | inhibition of secondary alcohol dehydrogenase activity [6]: inhibited

Ferrous Sulfate
Methane-Oxidizing Activity in presence of metal [7]: 4.8 μmoles/hr/mg protein | Propylene-Oxidizing Activity in presence of metal [7]: 5.9 μmoles/hr/mg protein

[Cl][Fe]([Cl])[Cl] [Ferric Chloride]
Methane-Oxidizing Activity in presence of metal [7]: 4.8 μmoles/hr/mg protein | Propylene-Oxidizing Activity in presence of metal [7]: 5.8 μmoles/hr/mg protein

NC(=O)c1ccc[n+]([C@@H]2O[C@H](COP(=O)(O)OP(=O)(O)OC[C@H]3O[C@@H](n4cnc5c(N)ncnc54)[C@H](OP(=O)(O)O)[C@@H]3O)[C@@H](O)[C@H]2O)c1 [NADP]
cofactor for oxidation of secondary alcohols in the cell-free system [5]: not effective | electron acceptor for the purified enzyme [6]: could not act as electron carrier

NC(=O)C1=CN([C@@H]2O[C@H](COP(=O)(O)OP(=O)(O)OC[C@H]3O[C@@H](n4cnc5c(N)ncnc54)[C@H](OP(=O)(O)O)[C@@H]3O)[C@@H](O)[C@H]2O)C=CC1 [NAD(P)H]
cofactor for oxidation of secondary alcohols in the cell-free system [5]: not effective

NC(=O)c1ccc[n+]([C@@H]2O[C@H](COP(=O)([O-])OP(=O)(O)OC[C@H]3O[C@@H](n4cnc5c(N)ncnc54)[C@H](O)[C@@H]3O)[C@@H](O)[C@H]2O)c1 [NAD, Nicotinamide adenine dinucleotide]
cofactor for oxidation of secondary alcohols in the cell-free system [5]: requirement; also recorded: required | Km ([4]; Line-Weaver-Burk plot, read-out: Michaelis constants (Km) of SADH): 11 µM | Km ([4]; pure SADH, read-out: Km values): 11 µM | electron acceptor for the purified enzyme [6]: required

O=C1C(Cl)=CC(=Nc2ccc(O)cc2)C=C1Cl [dichlorophenol indophenol]
cofactor for oxidation of secondary alcohols in the cell-free system [5]: not effective | electron acceptor for the purified enzyme [6]: could not act as electron carrier

Cc1cc2nc3c(=O)[nH]c(=O)nc-3n(C[C@H](O)[C@H](O)[C@H](O)COP(=O)(O)OP(=O)(O)OC[C@H]3O[C@@H](n4cnc5c(N)ncnc54)[C@H](O)[C@@H]3O)c2cc1C [FAD, flavin adenine dinucleotide]
cofactor for oxidation of secondary alcohols in the cell-free system [5]: not effective | electron acceptor for the purified enzyme [6]: could not act as electron carrier

N[C@@H](CCC(=O)N[C@@H](CS)C(=O)NCC(=O)O)C(=O)O [glutathione]
cofactor for oxidation of secondary alcohols in the cell-free system [5]: not effective | inhibition of secondary alcohol dehydrogenase activity [6]: strongly inhibited

From patent publication US4241184A, “Secondary alcohol dehydrogenase enzyme and use thereof” (priority 1979, dated 1980)
